Activity calls are given as the source filed them. No cut-off for these calls is given here.
Key:
[1] = target: T1, Transcriptional activator protein LasR (Pseudomonas aeruginosa (strain ATCC 15692 / PAO1 / 1C / PRS 101 / LMG12228)) (UniProt P25084); assay: Antagonist activity at LasR in Pseudomonas aeruginosa PAO1 assessed as inhibition of biofilm formation at 0.3 to 333 uM after 20 hrs by crystal violet staining assay
T1 sequence (whole entry): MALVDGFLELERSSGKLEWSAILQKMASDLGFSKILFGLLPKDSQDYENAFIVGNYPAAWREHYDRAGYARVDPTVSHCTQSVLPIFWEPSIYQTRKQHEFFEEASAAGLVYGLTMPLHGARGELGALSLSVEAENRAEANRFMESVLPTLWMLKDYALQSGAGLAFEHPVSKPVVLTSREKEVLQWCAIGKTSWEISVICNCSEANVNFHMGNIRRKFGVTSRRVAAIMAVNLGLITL

Pseudomonas aeruginosa [2] = assay: Antibacterial activity against Pseudomonas aeruginosa PAO1 assessed as inhibition of pyocyanin production at 100 uM after 20 hrs; format: functional; settings: PAO1, 20 h
[3] = target: T1, Transcriptional activator protein LasR (Pseudomonas aeruginosa (strain ATCC 15692 / PAO1 / 1C / PRS 101 / LMG12228)); assay: Binding affinity to LasR in Pseudomonas aeruginosa PAO1 at 50 to 100 uM after 24 hrs by gel electrophoresis
Pseudomonas aeruginosa [4] = assay: Growth inhibition of lasI-rhlI double mutant Pseudomonas aeruginosa PAO-JP2 harboring lasI promoter coupled to the luxCDABE box measured at >100 uM after 5 hrs; format: organism-based; settings: in vivo
[5] = target: T2, HTH-type quorum-sensing regulator RhlR (Pseudomonas aeruginosa (strain ATCC 15692 / PAO1 / 1C / PRS 101 / LMG12228)) (UniProt P54292); assay: Antagonist activity at RhlR in lasI-rhlI double mutant Pseudomonas aeruginosa PAO-JP2 harboring lasI promoter coupled to the luxCDABE box assessed as reduction in C4-HSL induced protein measured at 25 to 200 uM after 5 hrs
T2 sequence (whole entry): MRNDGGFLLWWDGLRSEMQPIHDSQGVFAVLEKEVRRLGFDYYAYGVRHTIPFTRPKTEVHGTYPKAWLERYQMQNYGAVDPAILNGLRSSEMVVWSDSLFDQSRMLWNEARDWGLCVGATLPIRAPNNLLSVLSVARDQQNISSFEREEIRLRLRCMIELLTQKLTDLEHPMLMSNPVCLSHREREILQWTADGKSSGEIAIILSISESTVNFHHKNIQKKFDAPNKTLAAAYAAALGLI

[6] = target: T1, Transcriptional activator protein LasR (Pseudomonas aeruginosa (strain ATCC 15692 / PAO1 / 1C / PRS 101 / LMG12228)); assay: Antagonist activity at LasR in Escherichia coli DH5a harboring reporter plasmid lasI-lacZ (pSC11) pJN105L plasmid assessed as inhibition of 3-oxo-C12-HSL induced protein activation by Miller assay method; settings: Escherichia coli DH5[alpha]
[7] = target: T1, Transcriptional activator protein LasR (Pseudomonas aeruginosa (strain ATCC 15692 / PAO1 / 1C / PRS 101 / LMG12228)); settings: 12 uM
Description: Antagonist activity at LasR in Pseudomonas aeruginosa PAO1 assessed as inhibition of biofilm formation at 12 uM after 20 hrs by crystal violet staining assay

[8] = target: T1, Transcriptional activator protein LasR (Pseudomonas aeruginosa (strain ATCC 15692 / PAO1 / 1C / PRS 101 / LMG12228)); settings: JP2, 50 uM
Description: Antagonist activity at LasR in lasI-rhlI double mutant Pseudomonas aeruginosa JP2 harboring lasI promoter coupled to the luxCDABE box assessed as reduction in C4-HSL induced luminescence measured at 50 uM after 5 hrs

[9] = target: T1, Transcriptional activator protein LasR (Pseudomonas aeruginosa (strain ATCC 15692 / PAO1 / 1C / PRS 101 / LMG12228)); settings: 200 uM
Description: Inhibition of LasR activation in Pseudomonas aeruginosa PAO1 harboring lasI promoter coupled to the luxCDABE luminescence system assessed as reduction in luminescence measured at 200 uM after 5 hrs

[10] = target: T1, Transcriptional activator protein LasR (Pseudomonas aeruginosa (strain ATCC 15692 / PAO1 / 1C / PRS 101 / LMG12228)); settings: JP2, 200 uM
Description: Agonist activity at LasR in lasI-rhlI double mutant Pseudomonas aeruginosa JP2 harboring lasI promoter coupled to the luxCDABE box assessed as reduction in luminescence measured at 200 uM after 5 hrs

SMILES	inhibition [1]	inhibition at 100 µM (Pseudomonas aeruginosa [2])	Activity [3]	Activity (Pseudomonas aeruginosa [4])	inhibition [5]	inhibition [6]	inhibition [7]	inhibition [8]	inhibition [9]	inhibition [10]
O=C1C=C(Br)/C(=C/Br)O1	Active									
C[S+]([O-])CCCCN=C=S (stereo not given) [SULFORAPHANE]		> 70%	Active	Non-toxic	Active	Dose-dependent effect	Active	Active	Active	inactive

From ChEMBL document CHEMBL3217408 (Medchemcomm, 2013)
